Data set [1] concerns Gad2:Ndufs4cKO mice. The data set is described as follows: Three-chamber social approach test. In kind it is in vivo, mouse. As to conditions: control mice, CBD 100 mg/kg twice/day. The source says: Two mouse lines were used in this study: (1) a validated mouse genetic model of MD (Kruse, S. E., et al. Cell Metab. 2008, 7: 312-320; Quintana, A., et al. Proc. Natl. Acad. Sci. USA. 2010, 107: 10996-11001), lacking Ndufs4 constitutively (Ndufs4^−/−, Ndufs4 KO) and wild-type (WT) littermates (Ndufs4^+/+) as controls, and (2) a conditional knockout mouse line lacking Ndufs4 selectively in GABAergic cells (Bolea et al. 2019 (https://elifesciences.org/articles/47163). For the latter, mice expressing cre-recombinase under the control of the Gad2 promoter (Quintana, A., et al. Nat. Neurosci. 2012, 15: 1547-1555) and one floxed Ndufs4 allele (Gad2^cre/+:Ndufs4^lox/+) were bred with mice carrying two floxed Ndufs4 alleles (Ndufs4^lox/lox). Out of all the possible offspring, Gad2^cre/+: Ndufs4^lox/lox mice bear Ndufs4 deficiency selectively in GABAergic neurons. […]
A three-chamber arena was used to assess sociability as previously described (Puighermanal et al, Front Mol Neurosci., 2017, 10:419). […] The time spent sniffing the unfamiliar mouse and the empty wire cage was manually scored. The discrimination index for sociability was calculated as follows: (time exploring unfamiliar mouse—time exploring empty wire cage)/(total exploration time)*100. […]

Data set [2] concerns Ndufs4−/− mice. The data set is described as follows: Clasping onset in Ndufs4−/− mice. The format is in vivo, mouse. As to conditions: CBD 100 mg/kg once daily vs vehicle-treated, p<0.05. The text has this:
(§1) Two mouse lines were used in this study: (1) a validated mouse genetic model of MD (Kruse, S. E., et al. Cell Metab. 2008, 7: 312-320; Quintana, A., et al. Proc. Natl. Acad. Sci. USA. 2010, 107: 10996-11001), lacking Ndufs4 constitutively (Ndufs4^−/−, Ndufs4 KO) and wild-type (WT) littermates (Ndufs4^+/+) as controls, and (2) a conditional knockout mouse line lacking Ndufs4 selectively in GABAergic cells (Bolea et al. 2019 (https://elifesciences.org/articles/47163). For the latter, mice expressing cre-recombinase under the control of the Gad2 promoter (Quintana, A., et al. Nat. Neurosci. 2012, 15: 1547-1555) and one floxed Ndufs4 allele (Gad2^cre/+:Ndufs4^lox/+) were bred with mice carrying two floxed Ndufs4 alleles (Ndufs4^lox/lox). Out of all the possible offspring, Gad2^cre/+: Ndufs4^lox/lox mice bear Ndufs4 deficiency selectively in GABAergic neurons. Mice with Gad2^cre/+:Ndufs4^lox/+ genotype with one functional Ndufs4 allele as well as mice with the Gad2^cre/+:Ndufs4^lox/lox genotype were used as controls.
Clasping behaviour was used as a sign of neurological degeneration (Johnson, S. C., et al. Science. 2013, 342: 1524-1528). Clasping consisted in an inward curling of the spine and a retraction of the forelimbs and/or hindlimbs toward the midline of the body.

The test system of data set [3] is Ndufs4−/− mice. Put plainly: Survival of Ndufs4−/− mice (mouse model of Leigh syndrome). In kind it is in vivo.
Text: as §1
Ndufs4 encodes a protein involved in assembly, stability, and activity of complex I of the mitochondrial electron transport chain. Ndufs4^−/− mice display a progressive neurodegenerative phenotype, which resembles the human disease and includes retarded growth rate, weight loss, lethargy, loss of motor skills, and premature death.

The subject of data set [4] is Gad2:Ndufs4cKO mice. The data set is described as follows: Survival of Gad2:Ndufs4cKO mice (cell type-specific mouse model of Leigh syndrome). The format is in vivo.
Text: as §1
Given the early onset severe phenotype that results in death at a median age of ˜40 days in Ndufs4^−/− mice, it is difficult to study certain clinical signs that recapitulate some symptoms of the human pathology. […]

Data set [5] concerns Ndufs4−/− mice. Put plainly: Accelerating rotarod performance in Ndufs4−/− mice. In kind it is in vivo, mouse. As to conditions: Ndufs4KO mice, CBD 100 mg/kg once daily; postnatal day 30, 40, 50.
Text: as §1
Rotarod was performed at postnatal day 30, 40, and 50. Mice were placed on a rotating drum that gradually accelerated from 4 rpm to 40 rpm over 300 sec. Each trial ended when a mouse fell off, made one complete backward revolution while hanging on, or reached 5-min. Each mouse was tested in 3 trials/day spaced 20 min apart. The results of the 3 trials were averaged.
(Falling from the rotarod earlier than controls is read as motor impairment.)

For data set [6] the following is noted: rodents; cited from earlier work.

Structures are written as SMILES.

With `C=C(C)[C@@H]1CCC(C)=C[C@H]1c1c(O)cc(CCCCC)cc1O` [CBD, (−)-trans-2-p-mentha-l,8-dien-3-yl-5-pentylresorcinol], the “sociability (social interaction)” value in the data set on Gad2:Ndufs4cKO mice [1] is given as “no effect”. Also, the “appearance (onset) of clasping” value in the data set on Ndufs4−/− mice [2] was “significantly delayed”. The median survival in the data set on Ndufs4−/− mice [3] (Ndufs4KO mice, CBD 100 mg/kg once/day intraperitoneal from postnatal day 24-30) is 75.5 days. Also, the “life span (survival)” value with Ndufs4−/− mice [3] (Ndufs4−/− mice, CBD 100 mg/kg once daily, log-rank p<0.0001) was “significantly extended the life span”; with Gad2:Ndufs4cKO mice [4] (CBD 100 mg/kg twice daily, log-rank p<0.0001), “extended the life span”. In the data set with Gad2:Ndufs4cKO mice [4] (CBD 100 mg/kg intraperitoneal twice daily from postnatal day 35-40, p<0.0001), the average survival time is 87 days. Moreover, the “rotarod performance (time to fall off)” value with Ndufs4−/− mice [5] is given as “delayed the progressive decline”. In addition, the half-life in data set [6] is on record as roughly 4.5 h.

By half-life is commonly meant the time in which the quantity being followed falls by half.

The values are drawn from patent US12343316B2, “Cannabidiol and/or derivatives thereof for use in the treatment of mitochondrial diseases” (U[…] DE BARCELONA, priority 2019, dated 2025).
